Assay results taken from US10729130B2, “Nematicidal compositions and methods of using them” (Eden Research plc, priority 2004, dated 2020).
Blank lines part the entries; values can stand above or below the molecule they belong to.

Columns and labels:
[1] = Solution levels of terpenes in water (true solution by shear blending); assay type: physicochemical; conditions: maximum level solubilized in water by solution-forming shear blending
root-knot nematodes = experiment: Nematicidal activity of high purity versus low purity citral; assay type: in vivo, root-knot nematode; conditions: average of four replicates
Experimental: Compositions of regular and technical ciral at 250 and 125 ppm were produced in 1% Tween 80 and incubated with root-knot nematodes a in the same way as previously described. Observations of the kill rate (percentage dead) were made at 21 and 42 hours.
The results are shown below in Table 13 and are the average of four replicates.

[2] = Terpene stability: yellow colored oxidation product (colour of encapsulated terpene pellet); assay type: physicochemical; parameters: key to Colour: W = white; Y = yellow; sl = slight; int = intermediate
Experimental: Loading reactions were set up as shown in Table 25 and left to incubate overnight. Samples were centrifuged at 14,000×g for 10 minutes and the appearance of free terpene floating on the aqueous layer and the color of the encapsulated terpenes in the pellet was scored. The highest volume of terpene absorbed by particles as evidenced by the absence of free terpene was recorded as the volume of absorbed terpene emulsion. The reactions were incubated for 1, 3, 6, 9 and 24 hours at room temperature or 37° C. After incubation samples were centrifuged at 14,000×g for 10 minutes and the appearance of free terpene floating on the aqueous layer was scored. The highest volume of terpene absorbed by the particles as evidenced by the absence of free terpene was recorded as the volume of absorbed terpene emulsion. Colour of the encapsulated pellet was scored at 24 hours. Increasing volumes of terpene emulsion were mixed with 250 mg/ml Baker's YP or 250 mg/ml SAF Mannan™ overnight at room temperature as shown in Tables 27 and 28. Samples were centrifuged at 14,000×g for 10 minutes and the appearance of free terpene floating on the aqueous layer was scored. The highest volume of terpene emulsion absorbed by Baker's YP or SAF Mannan™ as evidenced by the absence of free terpene was recorded as the volume of absorbed terpene emulsion. Colour of encapsulated terpenes in the pellet was recorded.

[3] = SAF Mannan loading of different terpenes and terpene mixtures; assay type: physicochemical; parameters: key to Free Terpene: +: “free terpene” refers to the visible presence of terpene in the centrifuged reaction mixture; −: The absence of free terpene indicates complete absorption of the terpene by the particles; key to Free Terpene: phase inversion remark: Inverted = Phase Inverted - solids floating on top - no free oil; W = white; Y = yellow; conditions: for Free Terpene: SAF Mannan 500 μl (250 mg/ml), overnight, room temperature; for Vol. loaded (maximal terpene loading in SAF Mannan): approximate maximal loading, volume of terpene emulsion absorbed by SAF Mannan; for % Loaded w/w (maximal terpene loading in SAF Mannan): ratio of amount of terpene loaded to amount of particle present (weight for weight); for Free Terpene: phase inversion remark: SAF Mannan 500 μl, second line of the Free Terpene cell
Experimental: (§1) Increasing volumes of terpene emulsion were mixed with 250 mg/ml Baker's YP or 250 mg/ml SAF Mannan™ overnight at room temperature as shown in Tables 27 and 28. Samples were centrifuged at 14,000×g for 10 minutes and the appearance of free terpene floating on the aqueous layer was scored. The highest volume of terpene emulsion absorbed by Baker's YP or SAF Mannan™ as evidenced by the absence of free terpene was recorded as the volume of absorbed terpene emulsion. Colour of encapsulated terpenes in the pellet was recorded.
(§2) Percentage loaded represents a ratio of the amount of terpene loaded to the amount of particle present (weight for weight).

[4] = Baker's YP loading of different terpenes and terpene mixtures; assay type: physicochemical; parameters: key to Free Terpene: +: “free terpene” refers to the visible presence of terpene in the centrifuged reaction mixture; −: The absence of free terpene indicates complete absorption of the terpene by the particles; conditions: for Free Terpene: Baker's YP 250 mg/ml 500 μl; for Vol. Loaded μl: approximate maximal terpene loading in Baker's YP; for % Loaded w/w: maximal loading in Baker's YP, ratio of terpene loaded to particle present, weight for weight
Experimental: as §1, §2

[5] = Table 27, Baker's YP, emulsion 15 μl
[6] = Table 27, Baker's YP, emulsion 37.5 μl
[7] = Table 27, Baker's YP, emulsion 75 μl
[8] = Table 27, Baker's YP, emulsion 112.5 μl
[9] = Table 27, Baker's YP, emulsion 150 μl
[10] = Table 27, Baker's YP, emulsion 225 μl
[11] = Table 27, Baker's YP, emulsion 450 μl
[12] = colour of encapsulated terpene in pellet, SAF Mannan 500 μl, terpene emulsion vol 15
[13] = colour of encapsulated terpene in pellet, SAF Mannan 500 μl, terpene emulsion vol 37.5
[14] = colour of encapsulated terpene in pellet, SAF Mannan 500 μl, terpene emulsion vol 75
[15] = colour of encapsulated terpene in pellet, SAF Mannan 500 μl, terpene emulsion vol 112.5
[16] = colour of encapsulated terpene in pellet, SAF Mannan 500 μl, terpene emulsion vol 150
[17] = colour of encapsulated terpene in pellet, SAF Mannan 500 μl, terpene emulsion vol 225
[18] = colour of encapsulated terpene in pellet, SAF Mannan 500 μl, terpene emulsion vol 450
[19] = terpene emulsion vol 15, 1% Tween-80 485 μl
[20] = terpene emulsion vol 37.5, 1% Tween-80 462.5 μl
[21] = terpene emulsion vol 75, 1% Tween-80 425 μl
[22] = terpene emulsion vol 150, 1% Tween-80 350 μl
[23] = terpene emulsion vol 225, 1% Tween-80 275 μl
[24] = terpene emulsion vol 450, 1% Tween-80 50 μl
[25] = emulsion 15 μl, 1% Tween-80 485 μl
[26] = emulsion 37.5 μl, 1% Tween-80 462.5 μl
[27] = emulsion 75 μl, 1% Tween-80 425 μl
[28] = emulsion 150 μl, 1% Tween-80 350 μl
[29] = emulsion 225 μl, 1% Tween-80 275 μl
[30] = emulsion 450 μl, 1% Tween-80 50 μl

Colour [2, 5]: W
Colour [2, 6]: W
Colour [2, 7]: W
Colour [2, 8]: W
Colour [2, 9]: W
Colour [2, 10]: W
Colour [2, 11]: W
Colour [2, 12]: W
Colour [2, 13]: W
Colour [2, 14]: W
Colour [2, 15]: W
Colour [2, 16]: W
Colour [2, 17]: W
Colour [2, 18]: W
Solution Level [1]: 500 ppm
Free Terpene [3, 19]: −
Free Terpene [3, 20]: −
Free Terpene [3, 21]: −
Free Terpene ([3]; terpene emulsion vol 112.5, 1% Tween-80 387.5 μl): −
Free Terpene [3, 22]: −
Free Terpene [3, 23]: −
Free Terpene [3, 24]: +
Free Terpene: phase inversion remark ([3]; terpene emulsion vol 225): Inverted
Free Terpene: phase inversion remark ([3]; terpene emulsion vol 450): Inverted
Vol. loaded (maximal terpene loading in SAF Mannan) [3]: 150 µL
% Loaded w/w (maximal terpene loading in SAF Mannan) [3]: 133% w/w
Free Terpene [4, 25]: −
Free Terpene [4, 26]: −
Free Terpene [4, 27]: −
Free Terpene ([4]; emulsion 112.5 μl, 1% Tween-80 387.5 μl): +
Free Terpene [4, 28]: +
Free Terpene [4, 29]: +
Free Terpene [4, 30]: +
Vol. Loaded μl [4]: 75 µL
% Loaded w/w [4]: 67% w/w
Molecule: CC(C)=CCC/C(C)=C/CO [Geraniol]

Solution Level [1]: 500 ppm
Molecule: CC(=O)/C=C/C1=C(C)CCCC1(C)C [b-ionone]

Solution Level [1]: 500 ppm
Molecule: Terpeniol

Second part, the molecule before the results:

Molecule: C=C(C)C1CC=C(C)C(=O)C1 (stereo not shown) [Carvone]
Solution Level [1]: 500 ppm

Molecule: CC(C)=CCCC(C)=CC=O [Citral (80% pure), citral]
average percentage dead (root-knot nematodes; 125 ppm in 1% Tween 80, 21 h): 29%
average percentage dead (root-knot nematodes; 125 ppm in 1% Tween 80, 42 h): 27%
average percentage dead (root-knot nematodes; 250 ppm in 1% Tween 80, 21 h): 89%
average percentage dead (root-knot nematodes; 250 ppm in 1% Tween 80, 42 h): 96%

Molecule: CC(C)=CCCC(C)=CC=O [Citral (98% pure), citral]
average percentage dead (root-knot nematodes; 125 ppm in 1% Tween 80, 21 h): 23%
average percentage dead (root-knot nematodes; 125 ppm in 1% Tween 80, 42 h): 22%
average percentage dead (root-knot nematodes; 250 ppm in 1% Tween 80, 21 h): 87%
average percentage dead (root-knot nematodes; 250 ppm in 1% Tween 80, 42 h): 87%

Molecule: C=CCc1ccc(O)c(OC)c1 [Eugenol]
Colour [2, 5]: W
Colour [2, 6]: W
Colour [2, 7]: W
Colour [2, 8]: W
Colour [2, 9]: W
Colour [2, 10]: W
Colour [2, 11]: W
Colour [2, 12]: W
Colour [2, 13]: W
Colour [2, 14]: W
Colour [2, 15]: W
Colour [2, 16]: W
Colour [2, 17]: W
Colour [2, 18]: W
Free Terpene [3, 19]: −
Free Terpene [3, 20]: −
Free Terpene [3, 21]: −
Free Terpene [3, 22]: +
Free Terpene [3, 23]: +
Free Terpene [3, 24]: +
Vol. loaded (maximal terpene loading in SAF Mannan) [3]: 112.5 µL
% Loaded w/w (maximal terpene loading in SAF Mannan) [3]: 100% w/w
Free Terpene [4, 25]: −
Free Terpene [4, 26]: −
Free Terpene [4, 27]: −
Free Terpene [4, 28]: +
Free Terpene [4, 29]: +
Free Terpene [4, 30]: +
Vol. Loaded μl [4]: 75 µL
% Loaded w/w [4]: 67% w/w
